Test results from US20050085447A1, “Pyrido[3,4-d]pyrimidine derivatives as matrix metalloproteinase-13 inhibitors” (Warner-Lambert Company LLC, priority 2003, published 2005).

Target: T1, MMP-3 catalytic domain (Homo sapiens, UniProt P08254)
T1 construct: MMP-1 full-length, MMP-3 catalytic domain, MMP-7 full-length
Test: Thiopeptolide substrate hydrolysis inhibition assay, MMP-3 catalytic domain
Format: biochemical
Conditions: MES buffer pH 6.0, read-out: MMP-3CD IC50
Description: The assay methods of Biological Examples 1-4 measure the amount by which a test compound reduces the hydrolysis of a thiopeptolide substrate catalyzed by a matrix metalloproteinase enzyme or catalytic domain thereof. It has been shown previously by Ye Qi-Zhuang, Hupe D., and Johnson L. (Current Medicinal Chemistry, 1996;3:407-418) that inhibitor activity against a catalytic domain of an MMP is predictive of the inhibitor activity against the respective full-length MMP enzyme. The methods described below for the inhibition of MMP-13 may also be adapted and used to determine the ability of the compounds of Formula I to inhibit other matrix metalloproteases such as MMP-1, MMP-2, MMP-3, MMP-7, MMP-8, MMP-9, MMP-12, MMP-14, MMP-17, and the like.
Thiopeptolide substrates show virtually no decomposition or hydrolysis at or below neutral pH in the absence of a matrix metalloproteinase enzyme. A typical thiopeptolide substrate commonly utilized for assays is Ac-Pro-Leu-Gly-thioester-Leu-Leu-Gly-OEt. A 100 μL assay mixture will contain 50 mM of N-2-hydroxyethylpiperazine-N′-2-ethanesulfonic acid buffer (“HEPES,” pH 7.0), 10 mM CaCl2, 100 μM thiopeptolide substrate, and 1 mM 5,5′-dithio-bis-(2-nitro-benzoic acid) (DTNB). […] The change in absorbance at 405 nm is monitored on a Thermo Max microplate reader (molecular Devices, Menlo Park, Calif.) at room temperature (22° C.). The calculation of the amount of hydrolysis of the thiopeptolide substrate is based on E412=13600 M^−1 cm^−1 for the DTNB-derived product 3-carboxy-4-nitrothiophenoxide. Assays are carried out with and without matrix metalloproteinase inhibitor compounds, and the amount of hydrolysis is compared for a determination of inhibitory activity of the test compounds.
Test compounds were evaluated at various concentrations in order to determine their respective IC50 values, the micromolar concentration of compound required to cause a 50% inhibition of catalytic activity of the respective enzyme.
It should be appreciated that the assay buffer used with MMP-3CD was 50 mM N-morpholinoethane sulfonate (“MES”) at pH 6.0 rather than the HEPES buffer at pH 7.0 described above.
Some representative compounds of Formula I have been evaluated for their ability to inhibit MMP-13, MMP-1FL, MMP-3CD, MMP-7FL, MMP-8FL, MMP-9FL, MMP-12CD, MMP-14CD, and/or MMP-17CD, wherein FL means full-length enzyme and CD means a catalytic domain of the full-length enzyme. Test compounds can be evaluated at various concentrations in order to determine their respective IC50 values, the micromolar concentration of compound required to cause a 50% inhibition of the hydrolytic activity of the respective enzyme.
Certain compounds of Formula I have also been assayed with MMP-1 full-length, MMP-3 catalytic domain, MMP-7 full-length, MMP-8 full-length, MMP-9 full-length, MMP-12 catalytic domain, MMP-14 catalytic domain, and MMP-17 catalytic domain. […] In Biological Table 2, the compound example numbers for the Compound Examples are indicated in the column labelled “Ex. No.”

T1 sequence (P08254 100-272 limits assumed): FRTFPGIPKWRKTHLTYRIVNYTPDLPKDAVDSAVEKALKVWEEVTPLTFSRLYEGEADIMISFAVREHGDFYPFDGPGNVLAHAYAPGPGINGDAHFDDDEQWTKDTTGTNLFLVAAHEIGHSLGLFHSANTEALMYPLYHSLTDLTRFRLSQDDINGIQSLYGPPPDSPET

IC50: 26 µM
SMILES: COc1ccc(CNC(=O)c2cc3c(=O)n(Cc4ccc(C(=O)O)cc4)cnc3cn2)cc1 [Compound Example 1, 4-[6-(4-methoxy-benzylcarbamoyl)-4-oxo-4H-pyrido[3,4-d]pyrimidin-3-ylmethyl]-benzoic acid]
